Reference: patent US20250268869A1, “METHODS OF USING A (THIAZOLYL)BENZENESULFONAMIDE DERIVATIVE” (Cyteir Therapeutics, Inc., priority 2022, published 2025)

How the values were obtained:
human MCT1 = target: T1, human MCT1 (Homo sapiens, UniProt P53985); test: MCT1 Transport Inhibition Assay; assay type: cell-based; details: MDCK-II cells overexpressing human MCT1 (with CD147), TPGA transport, LC-MS/MS; read-out: BioIVT MCT1 Transporter IC50
T1 construct: host or cells: MDCK-II cells, transiently co-transfected
T1 sequence (P53985 1-500): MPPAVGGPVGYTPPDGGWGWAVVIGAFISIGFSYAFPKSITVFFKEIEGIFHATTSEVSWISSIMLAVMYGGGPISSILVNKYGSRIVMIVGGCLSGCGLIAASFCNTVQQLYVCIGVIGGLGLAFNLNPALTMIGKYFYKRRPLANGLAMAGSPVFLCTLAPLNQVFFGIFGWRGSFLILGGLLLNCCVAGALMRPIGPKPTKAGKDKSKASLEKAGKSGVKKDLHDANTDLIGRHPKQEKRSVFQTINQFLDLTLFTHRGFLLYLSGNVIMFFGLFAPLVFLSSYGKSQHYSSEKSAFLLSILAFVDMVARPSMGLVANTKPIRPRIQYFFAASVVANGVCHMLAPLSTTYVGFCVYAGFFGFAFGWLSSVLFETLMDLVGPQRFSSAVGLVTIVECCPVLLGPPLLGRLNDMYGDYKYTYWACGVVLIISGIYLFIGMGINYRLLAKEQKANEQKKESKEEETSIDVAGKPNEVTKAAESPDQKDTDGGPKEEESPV
T1 sequence (P35613 140-385 partner limits assumed): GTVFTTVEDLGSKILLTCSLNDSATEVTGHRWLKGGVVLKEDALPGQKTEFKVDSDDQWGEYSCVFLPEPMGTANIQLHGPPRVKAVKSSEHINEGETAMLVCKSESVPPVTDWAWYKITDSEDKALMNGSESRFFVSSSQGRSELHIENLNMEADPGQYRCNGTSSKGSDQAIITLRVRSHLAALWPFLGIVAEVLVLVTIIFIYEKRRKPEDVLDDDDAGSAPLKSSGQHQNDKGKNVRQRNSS
Procedure: Inhibition of MCT1 transport after treatment with compounds of the present invention was measured in MDCK-II cells that overexpress human MCT1 by quantifying the transport of 2-Thiophene-glycoxylic acid (TPGA) into cells using LC-MS/MS.
MDCK-II cells are seeded at 60,000 cells per well in growth medium (low-glucose DMEM+10% FBS) in 96-well trans-well membrane plates, and incubated overnight (37° C., 5% CO2). Cells were co-transfected with mammalian expression constructs coding for MCT1 and CD147 at a 2:1 ratio or an empty vector control (GFP) and then incubated for 48h (37° C., 5% CO2). Cells were washed 3 times with HBSS and cells were preincubated with inhibitors or vehicle control at room temperature in HBSS for 30 min with orbital shaking (60 rpm). HBSS was aspirated from the wells and replaced with HBSS with 25 mM Bis-Tris pH5.5+inhibitor or vehicle control+500 μM TPGA and incubated for 1 min at room temperature with orbital shaking (60 rpm). Both the apical and basolateral side of the trans-well insert were washed 4 times with ice-cold PBS. Cells were lysed with 60 μL of cell extraction solution, and the amount of TPGA in each well was quantified in triplicate by LC-MS/MS. The MCT1-mediated uptake rate was calculated using the following equation: […]
Percent inhibition for each concentration of inhibitor tested was calculated using the following equation: […]
Curves were fit to the calculated percent inhibition for each inhibitor, and the IC50 representing the concentration of inhibitor at which MCT1 is inhibited by 50% was calculated from this curve.

[1] = test system: Daudi (Burkitt Lymphoma) cells; test: Intracellular Lactate Accumulation Assay (Lactate-Glo); assay type: cell-based; details: Homo sapiens, 2h treatment, read-out: LactateGlo EC50
Procedure: Intracellular lactate accumulation after a 2h treatment with compounds of the present invention was measured in Daudi (Burkitt Lymphoma) cells using the Lactate-Glo Assay (Promega).
Daudi cells were seeded at 7,500 cells per well in 150 μL of growth medium (RPMI-1640 with 2 mM GlutaMAX+10% FBS) in clear, 96-well, flat-bottom microplates, and incubated overnight (37° C., 5% CO2). Compounds of the present invention were added using an INTEGRA VIAFLO 96 (8 point, 3-fold serial dilution, top concentration 1, 10, or 20 μM, 0.4% final DMSO concentration). After a 2h incubation (37° C., 5% CO2) microplates containing cells were washed twice with 150 μL ice-cold PBS, resuspended in 25 μL ice-cold PBS containing 12.5 μL 0.6N HCl, and placed on a microplate shaker for 5 min to lyse the cells. Following lysis, 12.5 μL 1M Trizma base was added to neutralize the suspension, and microplates were returned to the microplate shaker for 1 min. Plates were sealed and stored at −20° C. until further processing. On the day of the assay, microplates were thawed for 45 min at room temperate and 50 μL Lactate Detection Reagent (prepared as specified by manufacturer) was added to each well. Microplates were placed on a plate shaker for 1 min and incubated at room temperature for 1h. Luminescence was measured using a BioTek Cytation 5 Multi-Mode Reader. Curve fitting and calculation of EC50 was performed using GraphPad Prism.

Row | SMILES | IC50 (human MCT1) [µM] | EC50 [1] [µM]
1 | Cc1[nH]nc(C(F)(F)F)c1Cc1sc2c(c1C(=O)N1C[C@](C)(O)CO1)c(=O)n(C)c(=O)n2C(C)C [AZD3965] | 0.05 to 0.15 | 
2 | CC(C)OC(=O)NC1CCC(c2ncc(-c3ccc(N(C)C(=O)NCc4ccccc4)cc3S(=O)(=O)NC(C)(C)CO)s2)CC1 (stereo not shown) [Compound 176] |  | > 5
3 | CCNS(=O)(=O)c1cc(Nc2ccc(CC)nn2)ccc1-c1cnc([C@H]2CC[C@H](NC(=O)OC(C)C)CC2)s1 [Compound 157, isopropyl trans-N-[4-[5-[4-[(6-ethylpyridazin-3-yl)amino]-2-(ethylsulfamoyl)phenyl]thiazol-2-yl]cyclohexyl]carbamate] | 0.05 to 0.15 | < 0.05
4 | O=C(Nc1ccccc1C(=O)O)c1cc(S(=O)(=O)c2ccccc2)ccc1Cl [BAY8002] | 0.05 to 0.15 | 
5 | CCNS(=O)(=O)c1cc(Nc2ccn[nH]2)ccc1-c1cnc([C@H]2CC[C@H](NC(=O)OC(C)C)CC2)s1 [Compound 121, isopropyl trans-N-[4-[5-[2-(ethylsulfamoyl)-4-[(1H-pyrazol-5-yl)amino]phenyl]thiazol-2-yl]cyclohexyl]carbamate] |  | < 0.05
6 | CC(C)OC(=O)Nc1ccc(-c2cnc(C3CCC(NC(=O)OC(C)C)CC3)s2)c(S(=O)(=O)NCCN(C)C)c1 (stereo not shown) [Compound 175] |  | 1 to 5
